According to publication PMC12123458, “Unraveling Small Molecule-Mediated Sirtuin 3 Activation at a Distinct Binding Site for Cardioprotective Therapies” (ACS Central Science, 2025):

Key:
SIRT6 = SIRT6 (Homo sapiens, UniProt Q8N6T7); assay: SPR binding to SIRT6
Description: The affinity of SKLB-11A for SIRT1, SIRT2, SIRT3, SIRT5, and SIRT6 was determined using a Reichert 4SPR system (Reichert Technologies, Depew, NY, USA). Proteins at 200 μg/mL were immobilized on a dextran-coated sensor chip (13206066) until reaching ≥12,000 response units (RUs). A dual-flow channel setup was used, reserving one channel for blank controls. SKLB-11A was introduced at varying concentrations for binding and subsequent dissociation kinetic analysis. Data acquisition was at 25 °C utilizing a PBST running buffer (pH 7.4). The equilibrium dissociation constant (K d) was computed from steady-state affinity measurements using TraceDrawer software.

wild-type SIRT3 = target: T1, wild-type SIRT3 (Homo sapiens, UniProt Q9NTG7); assay: BLI binding of SKLB-11A to wild-type SIRT3; details: read-out: dissociation constant, wild-type SIRT3
T1 sequence (Q9NTG7 1-399): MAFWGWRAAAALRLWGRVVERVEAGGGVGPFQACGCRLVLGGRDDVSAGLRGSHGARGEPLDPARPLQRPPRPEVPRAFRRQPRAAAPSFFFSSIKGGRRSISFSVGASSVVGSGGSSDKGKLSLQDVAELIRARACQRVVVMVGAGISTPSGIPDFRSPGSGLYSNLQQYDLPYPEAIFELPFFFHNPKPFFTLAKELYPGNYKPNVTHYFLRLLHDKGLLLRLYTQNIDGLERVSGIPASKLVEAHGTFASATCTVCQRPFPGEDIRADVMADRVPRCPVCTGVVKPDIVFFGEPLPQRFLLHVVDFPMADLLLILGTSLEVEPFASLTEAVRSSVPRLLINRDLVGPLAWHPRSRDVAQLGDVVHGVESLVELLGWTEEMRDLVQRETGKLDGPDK
Description: Binding kinetics of SIRT3 with various compounds were quantified using SSA biosensors on an Octet Red96 system (ForteBio). The assays occurred in 96-well plates, recording wavelength shifts in real-time. Ambient temperature was maintained at 25 °C, with plate agitation at 1000 rpm, and a reaction volume of 200 μL per well. SIRT3 protein and test compounds were prepared in phosphate-buffered saline (PBS, pH 7.4). Biosensors were equilibrated in PBS for 10 min before immobilizing SIRT3 (0.9 μg/mL) for 180 s, followed by a 120-s PBS wash. […] Data analysis was performed using ForteBio’s Octet RED software.

SIRT3 [1] = target: T2, SIRT3 (Rattus norvegicus, UniProt A0A8I5XWT5); assay: CETSA of SIRT3 in H9c2 cells; format: cell-based; details: 10 μM, 6 h
T2 construct: endogenous in cells; host or cells: H9c2
T2 sequence (A0A8I5XWT5 1-347): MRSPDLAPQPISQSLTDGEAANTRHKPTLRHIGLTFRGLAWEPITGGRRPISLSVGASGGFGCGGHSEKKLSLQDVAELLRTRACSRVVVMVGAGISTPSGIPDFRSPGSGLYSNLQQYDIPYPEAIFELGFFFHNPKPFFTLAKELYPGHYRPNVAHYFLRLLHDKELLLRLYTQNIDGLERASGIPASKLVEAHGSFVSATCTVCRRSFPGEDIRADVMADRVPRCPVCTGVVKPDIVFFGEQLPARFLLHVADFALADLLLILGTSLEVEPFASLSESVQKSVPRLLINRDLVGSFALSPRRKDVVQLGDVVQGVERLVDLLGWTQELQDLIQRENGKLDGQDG
Description: The Cellular Thermal Shift Assay (CETSA) leverages the principle of thermal stabilization of proteins upon ligand binding. H9c2 cells were seeded on 100 mm culture dishes and allowed to adhere for 12 h. Following attachment, cells were treated with SKLB-11A (10 μM) for 6 h, after which they were enzymatically detached using trypsin and harvested. The cell suspension was partitioned into seven equal aliquots, which were then exposed to a range of thermal conditions (37, 41, 45, 49, 53, 57, and 61 °C) for 3 min each. Post-thermal treatment, rapid freezing in liquid nitrogen was performed thrice to ensure cell lysis. The lysates were then subjected to centrifugation at 12,000 rpm for 20 min, and the levels of SIRT3 were analyzed via Western blotting.

H9c2 cells [2] = assay: Intracellular ROS (DCFH-DA) and mitochondrial membrane potential (JC-1) in Dox-treated H9c2 cells; format: cell-based
Description: Mitochondrial membrane potential and reactive oxygen species (ROS) levels within cells were assessed using the JC-1 Mitochondrial Membrane Potential Assay Kit (Beyotime, Beijing, China) and the DCFH-DA probe (Beyotime, Shanghai, China), respectively, following the manufacturer’s guidelines. , For mitochondrial membrane potential quantification, cells were treated with JC-1 solution and incubated for 20 min at 37 °C in the dark. ROS quantification involved a 25 min incubation at 37 °C in the dark with DCFH-DA solution. Postincubation, cells underwent three gentle washes with prewarmed buffer. Visualization was achieved using a Nikon (Ni-E) fluorescence microscope and quantified by flow cytometry (BD FACS Calibur).

H9c2 cells [3] = assay: OGD/R injury model in vitro; format: cell-based; details: pretreatment for 24 h, 10 μM
Description: An in vitro oxygen-glucose deprivation (OGD) injury model was established as described in a previous study. OGD injury was induced by incubating cells in glucose-free DMEM under hypoxic conditions (94% N2, 1% O2, and 5% CO2) for 6 h. Before the hypoxic phase, cells were treated with SKLB-11A (10 μM). The cells were then incubated in normoxic conditions with normal medium at 37 °C for the indicated time of 24 h as reperfusion. Untreated cells were used as controls.

[4] = system: myocardial ischemia/reperfusion (I/R) injury model; assay: Mouse model of myocardial I/R injury; format: in vivo, C57BL/6J mice
SIRT3 [5] = target: T3, SIRT3 (Homo sapiens, UniProt Q9NTG7); assay: Fluor de Lys (FDL) fluorimetric SIRT3 deacetylase activity assay; format: biochemical
T3 construct: purchased Enzo Life Sciences BML-AK557-0001
T3 sequence (Q9NTG7 1-399): T1 sequence (Q9NTG7 1-399)
Description: The SIRT3 activity was assessed using the Enzo Life Sciences kit (BML-AK557-0001) per the protocol provided. A 10 μM fluoro-acetylated p53 peptide and 500 μM NAD^+ were added to SIRT3 assay buffer, incubated with test compounds and 0.5 μg recombinant SIRT3 at 37 °C for 30 min. In the mass spectrometry (MS) assay, 5 μM hSirt3 was reacted with 0.25 mM peptide and 1.25 mM NAD^+, with or without 10 μM SKLB-11A in 2% DMSO, at 37 °C. Controls included 2% DMSO without SKLB-11A. The reaction was halted at defined intervals using 5 mM nicotinamide, and the mixture then underwent filtration and subjected to nano LC-MS/MS analysis. Acetylated Peptide: MnSOD-K122 ([…]-Ac).

Chain of SIRT6 (Q8N6T7 whole entry, species assumed): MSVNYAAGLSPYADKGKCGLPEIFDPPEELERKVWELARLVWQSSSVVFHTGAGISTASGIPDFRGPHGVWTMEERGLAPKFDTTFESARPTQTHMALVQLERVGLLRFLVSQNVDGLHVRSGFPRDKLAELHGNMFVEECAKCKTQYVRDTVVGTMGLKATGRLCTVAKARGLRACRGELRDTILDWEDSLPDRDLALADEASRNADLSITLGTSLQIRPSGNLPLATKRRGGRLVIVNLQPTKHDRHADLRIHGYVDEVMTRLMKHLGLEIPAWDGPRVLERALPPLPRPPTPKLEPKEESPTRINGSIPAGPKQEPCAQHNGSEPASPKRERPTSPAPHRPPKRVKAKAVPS

## COC(=O)c1c(N)n(Cc2ccc(F)cc2)c2nc3ccccc3nc12 [SKLB-11A, Methyl 2-amino-1-(4-fluorobenzyl)-1H-pyrrolo[2,3-b]quinoxaline-3-carboxylate]
SIRT6
  binding to SIRT6: no binding
wild-type SIRT3
  Kd: 33.1 µM
SIRT3 [1]
  thermal stability of SIRT3 (CETSA): effectively binds to SIRT3
H9c2 cells [2]; JC-1
  Dox-induced dissipation of mitochondrial membrane potential (MMP): notably preserved
H9c2 cells [2]; pretreatment, DCFH-DA
  Dox-induced increase of ROS levels: effectively suppressed this increase
H9c2 cells [3]
  OGD/R-induced mitochondrial dysfunction: significantly ameliorated
[4]; 20 mg/kg ig, 24 h after I/R surgery
  I/R-induced elevations in serum LDH, CK-MB, BNP: partially reversed
[4]; 20 mg/kg ig, Evans blue/TTC, 24 h after I/R, vs I/R group
  infarct size: significant reduction in infarcted areas
[4]; 20 mg/kg ig, Masson's trichrome, 28 d after I/R
  I/R-induced cardiac fibrosis: markedly reduced
[4]; 20 mg/kg/day, ig, 1 week, I/R mice
  cardiac function (EF and FS): restored cardiac function
SIRT3 [5]; 100 µM, FDL deacetylation assay, compared to the control group, mean ± SD
  % effect @ 100 µM of SIRT3: maintained or enhanced the activity
SIRT3 [5]; 0.5 h, 100 µM, FDL deacetylation assay, compared to the control group, mean ± SD, read-out: % effect @ 100 µM of SIRT3
  activity at 100 µM: 188.1 ± 1.58%
SIRT3 [5]; FDL assay
  SIRT3 activation compared with other SIRT3 activators: better SIRT3 activation
SIRT3 [5]; FDL assay, read-out: EC50, SIRT3 deacetylation activity
  EC50: 22 ± 1.57 µM
